Reference: patent US11117947B2, “Double-acylated GLP-1 derivatives” (Novo Nordisk A/S, priority 2011, dated 2021)
Numbered stars: 1 amine (or outer) side, 2 acyl side, 3 side chain; on linkers, the order of the positions; unused ones are H or OH. Square brackets hold non-standard residues; d marks the D form. Side chains are listed from the residue outwards. Peptide text beside a SMILES is read from it. * marks the point of attachment. γGlu = O=C(O)[C@H](CCC(=O)[*:2])N[*:1]; C14 diacid = O=C(O)CCCCCCCCCCCCC(=O)*; AEEA = NCCOCCOCC(=O)O; Aib = CC(C)(N)C(=O)O

Columns and labels:
human GLP-1 receptor = target: T1, human GLP-1 receptor (Homo sapiens, UniProt P43220); assay: GLP-1 receptor binding: displacement of 125I-GLP-1 (SPA) at low and high albumin; details: for Ratio [(IC50/nM) high HSA]/[(IC50/nM) low HSA]: 2.0% HSA vs 0.001% HSA
T1 construct: expressed in transfected cells; membranes
T1 sequence (P43220 24-463): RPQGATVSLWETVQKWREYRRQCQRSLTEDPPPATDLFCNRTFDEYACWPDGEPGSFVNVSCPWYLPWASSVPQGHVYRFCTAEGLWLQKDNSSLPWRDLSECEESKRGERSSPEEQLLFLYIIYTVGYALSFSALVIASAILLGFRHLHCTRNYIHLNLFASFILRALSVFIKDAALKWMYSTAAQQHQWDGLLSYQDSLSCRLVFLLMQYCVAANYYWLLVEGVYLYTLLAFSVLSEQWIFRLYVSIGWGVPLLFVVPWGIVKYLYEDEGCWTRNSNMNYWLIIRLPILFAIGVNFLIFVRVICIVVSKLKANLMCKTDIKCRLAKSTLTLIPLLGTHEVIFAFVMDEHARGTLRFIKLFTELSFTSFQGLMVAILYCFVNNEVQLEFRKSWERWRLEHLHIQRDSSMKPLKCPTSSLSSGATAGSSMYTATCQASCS
Experimental: The purpose of this experiment is to investigate the binding to the GLP-1 receptor of the GLP-1 derivatives, and how the binding is potentially influenced by the presence of albumin. This is done in an in vitro experiment as described below.
In order to test the binding of the derivatives to albumin, the assay was performed with a low concentration of albumin (0.001%—corresponding to the residual amount thereof in the tracer), as well as with a high concentration of albumin (2.0% added). A shift in the binding affinity, IC50, is an indication that the peptide in question binds to albumin, and thereby a prediction of a potential protracted pharmacokinetic profile of the peptide in question in animal models.
Species (in vitro): Hamster
Biological End Point: Receptor Binding
A stable transfected cell line and a high expressing clone were selected for screening. The cells were grown at 5% CO2 in DMEM, 10% FCS, 1% Pen/Strep (Penicillin/Streptomycin) and 1.0 mg/ml of the selection marker G418.
The cells (approx. 80% confluence) were washed twice in PBS and harvested with Versene (aqueous solution of the tetrasodium salt of ethylenediaminetetraacetic acid), following which they were separated by centrifugation at 1000 rpm for 5 min. The cells/cell pellet must be kept on ice to the extent possible in the subsequent steps. The cell pellet was homogenised with Ultrathurrax for 20-30 seconds in a suitable amount of Buffer 1 (depending on the amount of cells, but e.g. 10 ml). The homogenate was centrifuged at 20000 rpm for 15 minutes. The pellet was resuspended (homogenised) in 10 ml Buffer 2 and re-centrifuged. This step was repeated once more. The resulting pellet was resuspended in Buffer 2, and the protein concentration was determined. The membranes were stored at minus 80° C.
Buffer 1: 20 mM Na-HEPES+10 mM EDTA, pH 7.4
Buffer 2: 20 mM Na-HEPES+0.1 mM EDTA, pH 7.4
Test compounds, membranes, SPA-particles and [^125I]-GLP-1(7-36)NH2 were diluted in assay buffer. 50 ul (micro liter) HSA (“high albumin” experiment containing 2% HSA), or buffer (“low albumin” experiment containing 0.001% HSA), was added to Optiplate, and 25 ul of test compounds were added. 5-10 ug membrane protein/sample was added (50 ul) corresponding to 0.1-0.2 mg protein/ml (to be preferably optimised for each membrane preparation). SPA-particles (Wheatgerm agglutinin SPA beads, Perkin Elmer, #RPNQ0001) were added in an amount of 0.5 mg/well (50 ul). The incubation was started with [^125I]-GLP-1]-(7-36)NH2 (final concentration 0.06 nM corresponding to 49.880 DPM, 25 ul). The plates were sealed with PlateSealer and incubated for 120 minutes at 30° C. while shaking. The plates were centrifuged (1500 rpm, 10 min) and counted in Topcounter.

[1] = Estimate of oral bioavailability: gut injection in rat (caprate), exposure in plasma; assay type: in vivo; details: injection in jejunum, 1000 uM in 55 mg/ml sodium caprate, plasma concentration (pM) at 30 min divided by dosing solution concentration (μM), mean n=4
Experimental: The GLP-1 derivatives were tested in a concentration of 1000 uM in a solution of 55 mg/ml sodium caprate.
Male Sprague Dawley rats with a body weight upon arrival of approximately 240 g were obtained from Taconic (Denmark) and assigned to the different treatments by simple randomisation, 4 rats per group.
The GLP-1 derivatives were administered in the jejunum either in the proximal part (10 cm distal for the duodenum) or in the mid-intestine (50 cm proximal for the cecum). A PE50-catheter, 10 cm long was inserted into the jejunum, forwarded at least 1.5 cm into the jejunum, and secured before dosing by ligature around the gut and the catheter with 3/0 suture distal to tip to prevent leak or catheter displacement. Catheter was placed without syringe and needle and 2 ml saline was administered into abdomen before closing the incision with wound clips.
100 μl of the respective GLP-1 derivative was injected into the jejunal lumen through the catheter with a 1 ml syringe. Subsequently, 200 μl of air was pushed into the jejunal lumen with another syringe to “flush” the catheter. This syringe was leaved connected to the catheter to prevent flow back into the catheter.
Blood samples (200 ul) were collected at desired intervals (usually at times 0, 10, 30, 60, 120 and 240 min) into EDTA tubes from the tail vein and centrifuged 5 minutes, 10000G, at 4° C. within 20 minutes. […] 12, p. 240-247. The donor beads were coated with streptavidin, while acceptor beads were conjugated with a monoclonal antibody recognising a mid-/C-terminal epitope of the peptide. Another monoclonal antibody, specific for the N-terminus, was biotinylated. The three reactants were combined with the analyte and formed a two-sited immuno-complex. Illumination of the complex released singlet oxygen atoms from the donor beads, which were channeled into the acceptor beads and triggered chemiluminescence which was measured in an Envision plate reader. The amount of light was proportional to the concentration of the compound.
After the blood sampling the rats were sacrificed under anaesthesia and the abdomen was opened to verify correct catheter placement.
The mean (n=4) plasma concentrations (pmol/l) were determined as a function of time.

Row | Ratio [(IC50/nM) high HSA]/[(IC50/nM) low HSA] (human GLP-1 receptor) | Dose-corrected exposure at 30 min [1] | IC50 (human GLP-1 receptor; low albumin, 0.001% HSA, read-out: IC50/nM (low HSA)) | Structure (SMILES)
1 | 174 | 99 | – | CC[C@H](C)[C@H](NC(=O)[C@H](Cc1ccccc1)NC(=O)[C@H](CCCCNC(=O)COCCOCCNC(=O)COCCOCCNC(=O)CC[C@H](NC(=O)CCCCCCCCCCCCC(=O)O)C(=O)O)NC(=O)[C@H](CCCNC(=N)N)NC(=O)[C@@H](NC(=O)[C@H](C)NC(=O)[C@H](CCC(N)=O)NC(=O)[C@H](CCCCNC(=O)COCCOCCNC(=O)COCCOCCNC(=O)CC[C@H](NC(=O)CCCCCCCCCCCCC(=O)O)C(=O)O)NC(=O)[C@H](CCC(=O)O)NC(=O)[C@H](CC(C)C)NC(=O)[C@H](Cc1ccc(O)cc1)NC(=O)[C@H](CO)NC(=O)[C@H](CO)NC(=O)[C@@H](NC(=O)[C@H](CC(=O)O)NC(=O)[C@H](CO)NC(=O)[C@@H](NC(=O)[C@H](Cc1ccccc1)NC(=O)[C@@H](NC(=O)CNC(=O)[C@H](CCC(=O)O)NC(=O)C(C)(C)NC(=O)[C@@H](N)Cc1c[nH]cn1)[C@@H](C)O)[C@@H](C)O)C(C)C)C(C)C)C(=O)N[C@@H](C)C(=O)N[C@@H](Cc1c[nH]cn1)C(=O)N[C@@H](CC(C)C)C(=O)N[C@H](C(=O)N[C@@H](CCCNC(=N)N)C(=O)NCC(=O)N[C@@H](CCCNC(=N)N)C(=O)NCC(=O)O)C(C)C [Example 7, N^ε22-[2-[2-[2-[[2-[2-[2-[[(4S)-4-carboxy-4-(13-carboxytridecanoylamino)butanoyl]amino]ethoxy]ethoxy]acetyl]amino]ethoxy]ethoxy]acetyl],N^ε27-[2-[2-[2-[[2-[2-[2-[[(4S)-4-carboxy-4-(13-carboxytridecanoylamino)butanoyl]amino]ethoxy]ethoxy]acetyl]amino]ethoxy]ethoxy]acetyl]-[Aib^8,Lys^22,Val^25,Arg^26,Lys^27,His^31,Arg^34]-GLP-1-(7-37)-peptide] (H-H[Aib]EGTFTSDVSSYLEK([AEEA-AEEA-γGlu-C14 diacid])QAVRK([AEEA-AEEA-γGlu-C14 diacid])FIAHLVRGRG-OH)
2 | – | 123 | 0.19 nM | CC[C@H](C)[C@H](NC(=O)[C@H](Cc1ccccc1)NC(=O)[C@H](CCCCNC(=O)CC[C@H](NC(=O)COCCOCCNC(=O)COCCOCCNC(=O)CCCCCCCCCCCCC(=O)O)C(=O)O)NC(=O)[C@H](CCCNC(=N)N)NC(=O)[C@@H](NC(=O)[C@H](C)NC(=O)[C@H](CCC(N)=O)NC(=O)[C@H](CCCCNC(=O)CC[C@H](NC(=O)COCCOCCNC(=O)COCCOCCNC(=O)CCCCCCCCCCCCC(=O)O)C(=O)O)NC(=O)[C@H](CCC(=O)O)NC(=O)[C@H](CC(C)C)NC(=O)[C@H](Cc1ccc(O)cc1)NC(=O)[C@H](CO)NC(=O)[C@H](CO)NC(=O)[C@@H](NC(=O)[C@H](CC(=O)O)NC(=O)[C@H](CO)NC(=O)[C@@H](NC(=O)[C@H](Cc1ccccc1)NC(=O)[C@@H](NC(=O)CNC(=O)[C@H](CCC(=O)O)NC(=O)[C@H](C)NC(=O)[C@@H](N)Cc1c[nH]cn1)[C@@H](C)O)[C@@H](C)O)C(C)C)C(C)C)C(=O)N[C@@H](CCC(=O)O)C(=O)N[C@@H](Cc1c[nH]c2ccccc12)C(=O)N[C@@H](CC(C)C)C(=O)N[C@H](C(=O)N[C@@H](CCC(N)=O)C(=O)NCC(=O)N[C@@H](CCCNC(=N)N)C(=O)NCC(=O)O)C(C)C [Example 20, N^ε22-[(4S)-4-carboxy-4-[[2-[2-[2-[[2-[2-[2-(13-carboxytridecanoylamino)ethoxy]ethoxy]acetyl]amino]ethoxy]ethoxy]acetyl]amino]butanoyl], N^ε27-[(4S)-4-carboxy-4-[[2-[2-[2-[[2-[2-[2-(13-carboxytridecanoylamino)ethoxy]ethoxy]acetyl]amino]ethoxy]ethoxy]acetyl]amino]butanoyl]-_[Lys^22,Val^25TArg^26,Lys^27,Glu^30,Gln^34]-GLP-1-(7-37)-peptide] (H-HAEGTFTSDVSSYLEK([γGlu-AEEA-AEEA-C14 diacid])QAVRK([γGlu-AEEA-AEEA-C14 diacid])FIEWLVQGRG-OH; N-terminus and C-terminus assumed)
3 | 57 | 86 | – | CC[C@H](C)[C@H](NC(=O)[C@H](Cc1ccccc1)NC(=O)[C@H](CCCCNC(=O)COCCOCCNC(=O)COCCOCCNC(=O)CC[C@H](NC(=O)CCCCCCCCCCCCC(=O)O)C(=O)O)NC(=O)[C@H](CCCNC(=N)N)NC(=O)[C@@H](NC(=O)[C@H](C)NC(=O)[C@H](CCC(N)=O)NC(=O)[C@H](CCCCNC(=O)COCCOCCNC(=O)COCCOCCNC(=O)CC[C@H](NC(=O)CCCCCCCCCCCCC(=O)O)C(=O)O)NC(=O)[C@H](CCC(=O)O)NC(=O)[C@H](CC(C)C)NC(=O)[C@H](Cc1ccc(O)cc1)NC(=O)[C@H](CO)NC(=O)[C@H](CO)NC(=O)[C@@H](NC(=O)[C@H](CC(=O)O)NC(=O)[C@H](CO)NC(=O)[C@@H](NC(=O)[C@H](Cc1ccccc1)NC(=O)[C@@H](NC(=O)CNC(=O)[C@H](CCC(=O)O)NC(=O)C(C)(C)NC(=O)[C@@H](N)Cc1c[nH]cn1)[C@@H](C)O)[C@@H](C)O)C(C)C)C(C)C)C(=O)N[C@@H](C)C(=O)N[C@@H](Cc1c[nH]c2ccccc12)C(=O)N[C@@H](CC(C)C)C(=O)N[C@H](C(=O)N[C@@H](CCCNC(=N)N)C(=O)O)C(C)C [Example 8, N^ε22-[2-[2-[2-[[2-[2-[2-[[(4S)-4-carboxy-4-(13-carboxytridecanoylamino)butanoyl]amino]ethoxy]ethoxy]acetyl]amino]ethoxy]ethoxy]acetyl], N^ε27-[2-[2-[2-[[2-[2-[2-[[(4S)-4-carboxy-4-(13-carboxytridecanoylamino)butanoyl]amino]ethoxy]ethoxy]acetyl]amino]ethoxy]ethoxy]acetyl]-[Aib^8,Lys^22,Val^25,Arg^26,Lys^27,Arg^34]-GLP-1-(7-34)-peptide] (H-H[Aib]EGTFTSDVSSYLEK([AEEA-AEEA-γGlu-C14 diacid])QAVRK([AEEA-AEEA-γGlu-C14 diacid])FIAWLVR-OH)
